From paper PMC13080581, “Identification and characterization of vasoactive intestinal peptide receptor antagonists with high-affinity and potent anti-leukemia activity” (The Journal of Biological Chemistry, 2025)
Ends that are not written are not given here.

How the values were obtained:
in vitro = in vitro ADME; details: human, plasma
Text: Data were plotted using GraphPad Prism.

in vivo = details: mouse, iv
Experimental: (§1) Plasma was collected at multiple time points post-injection and analyzed by SDS-PAGE using 12% polyacrylamide gel. Densitometry was performed using ImageJ and % peptide remaining was plotted using GraphPad Prism. The images were acquired using BioRad ChemiDoc Touch Imaging System with Image Lab Touch Software.

human T cells = details: 3 µM
[1] = molecular target: T1, VPAC1 on Vipr2 KO murine T-cells (Mus musculus, UniProt P97751); assay: Immunostaining colocalization with VPAC1 on Vipr2 KO murine T-cells; type: cell-based; details: Pearson's correlation
T1 construct: Vipr2 knockout (KO) T-cells stained for VPAC1 (green); endogenous in cells; host or cells: T cells from Vipr2 knockout mice
T1 sequence (P97751 31-459): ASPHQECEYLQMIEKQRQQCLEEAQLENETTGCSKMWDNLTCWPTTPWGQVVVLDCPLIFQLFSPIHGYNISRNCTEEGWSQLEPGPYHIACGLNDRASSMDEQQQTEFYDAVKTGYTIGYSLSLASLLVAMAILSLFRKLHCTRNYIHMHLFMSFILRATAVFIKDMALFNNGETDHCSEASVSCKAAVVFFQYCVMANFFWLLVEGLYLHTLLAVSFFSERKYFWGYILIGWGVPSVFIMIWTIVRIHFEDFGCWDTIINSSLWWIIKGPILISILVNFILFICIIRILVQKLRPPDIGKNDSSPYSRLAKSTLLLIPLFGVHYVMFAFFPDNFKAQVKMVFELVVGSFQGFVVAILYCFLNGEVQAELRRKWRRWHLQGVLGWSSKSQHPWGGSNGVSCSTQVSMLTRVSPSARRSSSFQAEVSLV
Experimental: Merge + NucleusSupplementary Figure 5. Immunostaining showing 6xHis-ANT308, 6xHis-VIP, and 6xHis-Scrambled-sequence peptides colocalization with VPAC1 on murine T-cells surface. Isolated T-cells from naïve wild-type (WT) C57BL/6 mice were activated with α-CD3/α-CD28 beads and incubated with 10µM (A-F) ANT308-6xHis, (G-L) VIP-6xHis and (M-R) VIP fully SCRAM-6xHis in the presence of IL-2 (30 IU/mL) for 1 hour. The cells were fixed with 4% Paraformaldehyde, stained with VPAC1 (green), 6xHis-tag (magenta) & Hoechst (blue) and visualized on Cell-Tak coated glass-bottom plates. (A-C, G-I and M-O) en face view, (D,J & P) representative field view, (E, K & Q) 3D view, (F, L & R) line scan profiles showing colocalization patterns of ANT308-6xHis, VIP-6xHis and VIP-fully scrambled-6xHis with VPAC1 on T-cell membrane. Relative fluorescence intensity (RFI), arbitrary unit. (S) Quantification of co-localization using Pearson’s correlation coefficient (R-value). Data are shown as mean ± SD with individual data points (n=10). Statistical significance was determined by one-way Anova with post-hoc multiple comparisons. **** p < 0.0001, *** p < 0.001. Scale 2.5µm.
Supplementary Figure 6. […] (K) Quantification of co-localization using Pearson’s correlation coefficient (R-value). […] Statistical significance was determined by one-way Anova with post-hoc multiple comparisons. **** p < 0.0001. […]

[2] = In vivo plasma half-life of 6xHis-tagged peptides after i.v. injection, western blot; details: mouse, iv
Experimental: as §1

C1498ff cells = assay: C1498ff leukemia model in B6 albino mice, ANT308 schedules; type: in vivo, mouse; details: high-dose (100 μg)
Experimental: All experimental procedures involving animals were approved by the Institutional Animal Care and Use Committee (IACUC) at Emory University. On day 0, B6 mice were injected by tail vein injection (i.v.) with 1 × 10^6 C1498 cells. DBA/2 mice were injected subcutaneously (s.c.) with 1 x 10^5 P815-luciferase mastocytoma cells. Growth of luciferase + C1498ff in B6 albino recipients was assessed by bioluminescent imaging (BLI) after mice were anesthetized, injected intraperitoneally (i.p.) with luciferin substrate (15 μg/g mouse), and imaged using an IVIS imaging system, starting at day 6 before treatment and continuing once weekly. Albino B6 mice surviving to >60 days without evidence of AML (by luciferase assay) received a second injection of a two-fold higher dose of C1498 (2 × 10^6 cells). DBA/2 mice that received P815 cells and treatment with ANT308, and survived past 60 days, were rechallenged using 2 x 10^5 P815 cells. Lymphocyte kinetics and C1498 leukemia cell burden were analyzed weekly through pterygoid venous plexus blood collection in CD45.1+ B6.SJL recipients; CD45.2 C1498 tumor cells were differentiated from CD45.1 host cells by flow cytometry. Mice that reached endpoint conditions were euthanized and counted as dead on the next day. […]

[3] = molecular target: VIP receptor (VIP-R) on human T cells (human (endogenous in human T cells)) (UniProt P32241)
Sequence of VIP receptor (VIP-R) on human T cells (human (endogenous in human T cells)) (P32241 31-457): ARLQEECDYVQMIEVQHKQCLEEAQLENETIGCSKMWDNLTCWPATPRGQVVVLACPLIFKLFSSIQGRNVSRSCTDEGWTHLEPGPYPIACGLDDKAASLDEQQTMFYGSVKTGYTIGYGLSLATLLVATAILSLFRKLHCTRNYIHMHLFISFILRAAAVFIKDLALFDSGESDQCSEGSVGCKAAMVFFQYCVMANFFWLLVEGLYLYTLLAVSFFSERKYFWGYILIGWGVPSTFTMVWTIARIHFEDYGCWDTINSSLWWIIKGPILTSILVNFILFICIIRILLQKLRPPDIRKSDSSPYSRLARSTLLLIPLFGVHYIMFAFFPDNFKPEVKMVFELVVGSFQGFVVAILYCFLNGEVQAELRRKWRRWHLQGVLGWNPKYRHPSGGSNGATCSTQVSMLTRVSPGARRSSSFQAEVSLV

CC[C@H](C)[C@H](NC(=O)[C@H](CO)NC(=O)[C@H](CC(N)=O)NC(=O)[C@H](CC(C)C)NC(=O)[C@H](Cc1ccc(O)cc1)NC(=O)[C@H](CCCCN)NC(=O)[C@H](CCCCN)NC(=O)[C@@H](NC(=O)[C@H](C)NC(=O)[C@H](CCSC)NC(=O)[C@H](CCC(N)=O)NC(=O)[C@H](CCCCN)NC(=O)[C@H](CCCNC(=N)N)NC(=O)[C@H](CC(C)C)NC(=O)[C@H](CCCNC(=N)N)NC(=O)[C@@H](NC(=O)[C@H](Cc1ccc(O)cc1)NC(=O)[C@H](CC(N)=O)NC(=O)[C@H](CC(=O)O)NC(=O)[C@@H](NC(=O)[C@H](Cc1ccccc1)NC(=O)[C@@H](NC(=O)[C@H](C)NC(=O)[C@H](CC(=O)O)NC(=O)[C@H](CO)NC(=O)[C@@H](N)Cc1c[nH]cn1)C(C)C)[C@@H](C)O)[C@@H](C)O)C(C)C)C(=O)N[C@@H](CC(C)C)C(=O)N[C@@H](CC(N)=O)C(=O)N[C@@H](Cc1c[nH]cn1)C(=O)N[C@@H](Cc1c[nH]cn1)C(=O)N[C@@H](Cc1c[nH]cn1)C(=O)N[C@@H](Cc1c[nH]cn1)C(=O)N[C@@H](Cc1c[nH]cn1)C(=O)N[C@@H](Cc1c[nH]cn1)C(N)=O [VIP-6xHis, reference compound]
half-life (in vitro): ~15 min

KPRRPYTSDYTRLRKQMAVKKYLNLILNHHHHHH-NH2 [ANT308-6xHis]
half-life (in vitro): ~15 min
half-life (in vivo): ~15 min

KPRRPYTVNYTSLRKQIAVKKYLMLILN-NH2 [ANT195]
T cell viability (human T cells): ~30%

YDDHTKLKINTARLVSAQSNVFNMLKYRHHHHHH-NH2 (C-terminus assumed) [VIP fully SCRAM-6xHis]
co-localization with VPAC1 in Vipr2 KO murine T-cells [1]: shows no overlap
half-life [2]: ~30 min

KPRRPYTSDYTRLRKQMAVKKYLNLILN-NH2 [ANT308]
toxic effects in weight or behavior of treated mice (C1498ff cells): did not produce any observable toxic effects

B1: ANT308 (peptide)
peptide: KPRRPYTSDYTRLRKQMAVKKYLNLILN-NH2
CD69 expression on CD4+ or CD8+ pooled human T cells treated with increasing concentrations of ANT308 (T cell activation, flow cytometry) [3]: 0.3 to 0.4 µM
